{
  "source": "ChEMBL document CHEMBL1149000",
  "about": "“Effects of p-Methoxycinnamaldehyde from Star Anise and Related Cinnamic Acid Derivatives on Velvetleaf Germination” (J Nat Prod, 1986)",
  "key": {"[1]": {"test_system": "Abutilon theophrasti", "test": "Herbicidal activity against velvetleaf assessed as seed germination at 5 mM after 4 days relative to control", "type": "functional"}, "[2]": {"test_system": "Abutilon theophrasti", "test": "Herbicidal activity against velvetleaf assessed as seed germination at 2.5 mM after 4 days relative to control", "type": "functional"}, "[3]": {"test_system": "Abutilon theophrasti", "test": "Herbicidal activity against velvetleaf assessed as seed germination at 1 mM after 4 days relative to control", "type": "functional"}, "[4]": {"test": "Toxicity in rat", "type": "organism-based", "conditions": "in vivo"}, "[5]": {"test": "Inhibition of cAMP phosphodiesterase at 0.05 mM"}},
  "data": [
    {"smiles": "O=C/C=C/c1ccccc1", "note": "[CINNAMALDEHYDE]", "values": [
      {"measurement": "Activity", "setting": "[1]", "value": 0, "unit": "%"},
      {"measurement": "Activity", "setting": "[2]", "value": 0, "unit": "%"},
      {"measurement": "Activity", "setting": "[3]", "value": 57, "unit": "%"}
    ]},
    {"smiles": "O=C(O)/C=C/c1ccccc1", "note": "[CINNAMIC ACID]", "values": [
      {"measurement": "Activity", "setting": "[1]", "value": 5, "unit": "%"},
      {"measurement": "Activity", "setting": "[2]", "value": 77, "unit": "%"},
      {"measurement": "Activity", "setting": "[3]", "value": 100, "unit": "%"}
    ]},
    {"smiles": "COc1ccc(/C=C/C(=O)O)cc1", "note": "[4-METHOXYCINNAMIC ACID]", "values": [
      {"measurement": "Activity", "setting": "[1]", "value": 83, "unit": "%"},
      {"measurement": "Activity", "setting": "[2]", "value": 83, "unit": "%"},
      {"measurement": "Activity", "setting": "[3]", "value": 107, "unit": "%"}
    ]},
    {"smiles": "C/C=C/c1ccc(OC)cc1", "note": "[ANETHOLE]", "values": [
      {"measurement": "Activity", "setting": "[1]", "value": 95, "unit": "%"},
      {"measurement": "Activity", "setting": "[2]", "value": 100, "unit": "%"},
      {"measurement": "Activity", "setting": "[3]", "value": 98, "unit": "%"}
    ]},
    {"smiles": "COc1ccc(/C=C/C=O)cc1", "note": "[PARA-METHOXY CINNAMALDEHYDE]", "values": [
      {"measurement": "Activity", "setting": "[1]", "value": 1, "unit": "%"},
      {"measurement": "Activity", "setting": "[2]", "value": 8, "unit": "%"},
      {"measurement": "LD50", "setting": "[4]", "value": "> 5000", "unit": "mg/kg"},
      {"measurement": "Activity", "setting": "[3]", "value": 83, "unit": "%"},
      {"measurement": "inhibition", "setting": "[5]", "value": 50, "unit": "%"}
    ]},
    {"smiles": "COc1ccccc1/C=C/C=O", "values": [
      {"measurement": "Activity", "setting": "[1]", "value": 0, "unit": "%"},
      {"measurement": "Activity", "setting": "[2]", "value": 3, "unit": "%"},
      {"measurement": "Activity", "setting": "[3]", "value": 77, "unit": "%"}
    ]},
    {"smiles": "OC/C=C/c1ccccc1", "note": "[CINNAMIC ALCOHOL]", "values": [
      {"measurement": "Activity", "setting": "[1]", "value": 0, "unit": "%"},
      {"measurement": "Activity", "setting": "[2]", "value": 0, "unit": "%"},
      {"measurement": "Activity", "setting": "[3]", "value": 73, "unit": "%"}
    ]}
  ]
}
